Measurements reported in patent US20100168421A1, “A NEW PEPTIDE DEFORMYLASE INHIBITOR COMPOUND AND MANUFACTURING PROCESS THEREOF” (priority 2007, published 2010).
pIC50: −log10 of the molar value. ≈ marks a conversion by molar mass, not a printed value. Where two headings read alike, the source gives them in different places.

Columns and labels:
[1] = target: PDF enzyme (Escherichia coli, UniProt P0A6K3); assay: PDF/FDH coupled enzyme assay, E. coli; assay type: biochemical
Protocol: Activities of PDF enzyme for E. coli and S. aureus were determined using PDF/FDH coupled assay. In this coupled assay, the formate released by PDF from its substrate formyl-Methionine-Alanine-Serine (fMAS) is oxidized by coupling enzyme formate dehydrogenase (FDH), reducing one molecule of NAD^+ to NADH, which is measured absorption at 340 nm.

[2] = target: T1, PDF enzyme (Streptococcus pneumoniae serotype 4, UniProt Q9F2F0); assay: PDF/FDH coupled enzyme assay, Streptococcus Pneumoniae; assay type: biochemical; conditions: substrate fMAS, absorption at 340 nm
T1 sequence (Q9F2F0 1-203): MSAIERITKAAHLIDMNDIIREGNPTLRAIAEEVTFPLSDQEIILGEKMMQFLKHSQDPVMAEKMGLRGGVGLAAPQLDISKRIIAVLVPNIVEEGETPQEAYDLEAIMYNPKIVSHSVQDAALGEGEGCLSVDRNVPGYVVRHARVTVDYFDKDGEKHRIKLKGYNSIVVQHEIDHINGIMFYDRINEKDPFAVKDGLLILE

[3] = target: PDF enzyme (Streptococcus pyogenes serotype M1, UniProt P68771); assay: PDF/FDH coupled enzyme assay, Streptococcus pyogenes; assay type: biochemical
[4] = system: Vancomycin-resistant Enterococcus faecalis; assay: MIC microdilution, VR E. faecalis; assay type: cell-based; conditions: read-out: MIC Vancomycin-resistant Enterococcus faecalis
Protocol: (§1) Minimum inhibitory concentrations (MICs) were determined using the microdilution method in 96-well format plates. Each of the compounds of Examples was dissolved in dimethyl sulfoxide to a concentration of 2 mg/mL and stored at 4° C. until used. They were diluted in Mueller-Hinton Broth (MHB) and used for MIC determination. The range of concentrations tested was […] final concentration using a two-fold dilution system. Plates were incubated at 37° C. and MIC were recorded after 24 hours of incubation for bacteria.
(§2) Linezolid and vancomycin were used as standard antibiotics, respectively.

[5] = system: Vancomycin-resistant Enterococcus faecium; assay: MIC microdilution, VR E. faecium; assay type: cell-based; conditions: read-out: MIC Vancomycin-resistant Enterococcus faecium
Protocol: as §1, §2

[6] = system: Streptococcus Pneumoniae Pen NS; assay: MIC microdilution, S. Pneumoniae Pen NS; assay type: cell-based; conditions: read-out: MIC Streptococcus Pneumoniae Pen NS
Protocol: as §1, §2

[7] = system: Streptococcus Pneumoniae Pen S; assay: MIC microdilution, S. Pneumoniae Pen S; assay type: cell-based; conditions: read-out: MIC Streptococcus Pneumoniae Pen S
Protocol: as §1, §2

[8] = system: Streptococcus pyogenes; assay: MIC microdilution, S. pyogenes; assay type: cell-based; conditions: read-out: MIC Streptococcus pyogenes
Protocol: as §1, §2

[9] = Acute toxicity study in mice; conditions: mouse, in vivo, po, 4000 mg/kg; ICR mice, orally, observed for 14 days
Protocol: The acute toxicity of the compounds of Example 5, 17 and 22 were tested using several groups of ICR mice each of 6 mice.

[10] = PDF/FDH coupled assay, substrate fMAS, absorption at 340 nm, read-out: IC50 Escherichia coli
[11] = PDF/FDH coupled assay, substrate fMAS, absorption at 340 nm, read-out: IC50 Streptococcus pyogenes
[12] = microdilution, Mueller-Hinton Broth, 37° C., 24 hours

PDF enzyme (Escherichia coli, UniProt P0A6K3), sequence (P0A6K3 whole entry): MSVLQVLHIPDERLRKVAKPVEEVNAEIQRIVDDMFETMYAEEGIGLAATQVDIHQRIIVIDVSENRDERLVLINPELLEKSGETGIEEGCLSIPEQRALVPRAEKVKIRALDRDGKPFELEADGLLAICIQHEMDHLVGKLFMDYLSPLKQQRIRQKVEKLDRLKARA
PDF enzyme (Streptococcus pyogenes serotype M1, UniProt P68771), sequence (P68771 whole entry): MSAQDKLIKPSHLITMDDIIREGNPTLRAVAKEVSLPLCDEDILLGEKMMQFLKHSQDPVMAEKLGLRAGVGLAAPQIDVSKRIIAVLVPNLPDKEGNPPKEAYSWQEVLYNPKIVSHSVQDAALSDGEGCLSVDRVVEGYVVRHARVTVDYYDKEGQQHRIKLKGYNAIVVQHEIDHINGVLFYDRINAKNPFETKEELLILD

Cc1ccc(CNC2CCN(C(=O)[C@@H](NC(=O)[C@@H](CC(=O)NO)CC3CCCC3)C(C)(C)C)CC2)cc1 [Example 1, (R)-2-Cyclopentylmethyl-N^1-{(S)-2,2-dimethyl-1-[4-(4-methyl-benzylamino)-piperidine-1-carbonyl]-propyl}-N^4-hydroxy-succinamide]
pIC50 [1]: 6.82
pIC50 [2]: 7.19
pIC50 [3]: 7.15

Cc1ccc(CNC2CCN(C(=O)[C@@H](NC(=O)[C@H](CC3CCCC3)CN(O)C=O)C(C)(C)C)CC2)cc1 [Example 2, (R)-2-Cyclopentylmethyl-N-{(S)-2,2-dimethyl-1-[4-(4-methyl-benzylamino)-piperidine-1-carbonyl]-propyl}-3-(formyl-hydroxy-amino)-propionamide]
pIC50 [1, 10]: 6.88
pIC50 [2]: 7.11
pIC50 [3, 11]: 7.07
MIC [4, 12]: 3.1 µg/mL (≈ 6.02 µM)
MIC [5, 12]: 0.4 µg/mL (≈ 0.777 µM)
MIC [6, 12]: 0.4 µg/mL (≈ 0.777 µM)
MIC [7, 12]: 0.1 µg/mL (≈ 0.194 µM)
MIC [8, 12]: 0.2 µg/mL (≈ 0.389 µM)

COc1ccc(CNC2CCN(C(=O)[C@@H](NC(=O)[C@H](CC3CCCC3)CN(O)C=O)C(C)(C)C)CC2)cc1 [Example 5, (R)-2-Cyclopentylmethyl-3-(formyl-hydroxy-amino)-N-{(S)-1-[4-(4-methoxy-benzylamino)-piperidine-1-carbonyl]-2,2-dimethyl-propyl}-propionamide]
MIC [4, 12]: 6.3 µg/mL (≈ 11.9 µM)
MIC [5, 12]: 1.6 µg/mL (≈ 3.01 µM)
MIC [6, 12]: 0.8 µg/mL (≈ 1.51 µM)
MIC [7, 12]: 0.2 µg/mL (≈ 0.377 µM)
MIC [8, 12]: 0.4 µg/mL (≈ 0.754 µM)
LD50 at 14 days [9]: > 2000 mg/kg

CC(C)(C)[C@H](NC(=O)[C@H](CC1CCCC1)CN(O)C=O)C(=O)N1CCC(NCc2ccc(O)cc2)CC1 [Example 6, (R)-2-Cyclopentylmethyl-3-(formyl-hydroxy-amino)-N-{(S)-1-[4-(4-hydroxy-benzylamino)-piperidine-1-carbonyl]-2,2-dimethyl-formyl}-propionamide]
pIC50 [1, 10]: 6.99
pIC50 [2]: 7.38
pIC50 [3, 11]: 7.08
MIC [4, 12]: > 50 µg/mL
MIC [5, 12]: 50 µg/mL (≈ 96.8 µM)
MIC [6, 12]: 3.1 µg/mL (≈ 6 µM)
MIC [7, 12]: 0.8 µg/mL (≈ 1.55 µM)
MIC [8, 12]: 0.8 µg/mL (≈ 1.55 µM)

CC(C)(C)[C@H](NC(=O)[C@H](CC1CCCC1)CN(O)C=O)C(=O)N1CCC(NCc2ccc(F)cc2F)CC1 [Example 10, (R)-2-Cyclopentylmethyl-N-{(S)-1-[4-(2,4-difluoro-benzylamino)-piperidine-1-carbonyl]-2,2-dimethyl-propyl}-3-(formyl-hydroxy-amino)-propionamide]
pIC50 [1]: 6.91
pIC50 [2]: 7.26
pIC50 [3]: 7.08

CC(C)(C)[C@H](NC(=O)[C@H](CC1CCCC1)CN(O)C=O)C(=O)N1CCC(NCc2ccc(O)c(O)c2)CC1 [Example 13, (R)-2-Cyclopentylmethyl-N-{(S)-1-[4-(3,4-dihydroxy-benzylamino)-piperidine-1-carbonyl]-2,2-dimethyl-propyl}-3-(formyl-hydroxy-amino)-propionamide]
pIC50 [1]: 6.88
pIC50 [2]: 7.34
pIC50 [3]: 7.06

CC(C)(C)[C@H](NC(=O)[C@H](CC1CCCC1)CN(O)C=O)C(=O)N1CCC(Nc2ccc(F)cc2)CC1 [Example 17, (R)-2-Cyclopentylmethyl-N-{(S)-1-[4-(4-fluoro-phenylamino)-piperidine-1-carbonyl]-2,2-dimethyl-propyl}-3-(formyl-hydroxy-amino)-propionamide]
MIC ([4]; 24 h): 3.1 µg/mL (≈ 6.14 µM)
MIC ([5]; 24 h): 0.4 µg/mL (≈ 0.793 µM)
MIC ([6]; 24 h): 0.8 µg/mL (≈ 1.59 µM)
MIC ([7]; 24 h): 0.2 µg/mL (≈ 0.396 µM)
MIC ([8]; 24 h): 0.2 µg/mL (≈ 0.396 µM)
LD50 at 14 days [9]: > 2000 mg/kg

CC(C)(C)[C@H](NC(=O)[C@H](CC1CCCC1)CN(O)C=O)C(=O)N1CCC(Nc2ccc(O)cc2)CC1 [Example 20, (R)-2-Cyclopentylmethyl-3-(formyl-hydroxy-amino)-N-{(S)-1-[4-(4-hydroxy-phenylamino)-piperidine-1-carbonyl]-2,2-dimethyl-formyl}-propionamide]
pIC50 [1, 10]: 6.99
pIC50 [2]: 7.20
pIC50 [3, 11]: 7.21
MIC [4, 12]: 25 µg/mL (≈ 49.7 µM)
MIC [5, 12]: 25 µg/mL (≈ 49.7 µM)
MIC [6, 12]: 3.1 µg/mL (≈ 6.17 µM)
MIC [7, 12]: 0.8 µg/mL (≈ 1.59 µM)
MIC [8, 12]: 1.6 µg/mL (≈ 3.18 µM)

CN(c1ccccc1)C1CCN(C(=O)[C@@H](NC(=O)[C@H](CC2CCCC2)CN(O)C=O)C(C)(C)C)CC1 [Example 22, (R)-2-Cyclopentylmethyl-N-{(S)-2,2-dimethyl-1-[4-(methyl-phenyl-amino)-piperidine-1-carbonyl]-propyl}-3-(formyl-hydroxy-amino)-propionamide]
pIC50 [1, 10]: 6.95
pIC50 [2]: 7.60
pIC50 [3, 11]: 7.38
MIC [4, 12]: 3.1 µg/mL (≈ 6.19 µM)
MIC [5, 12]: 0.2 µg/mL (≈ 0.399 µM)
MIC [6, 12]: 0.2 µg/mL (≈ 0.399 µM)
MIC [7, 12]: 0.05 µg/mL (≈ 0.0999 µM)
MIC [8, 12]: 0.05 µg/mL (≈ 0.0999 µM)
LD50 at 14 days [9]: > 2000 mg/kg

CC(C)(C)[C@H](NC(=O)[C@H](CC1CCCC1)CN(O)C=O)C(=O)N1CCC(NCc2ccco2)CC1 [Example 27, (R)-2-Cyclopentylmethyl-3-(formyl-hydroxy-amino)-N-((S)-1-{4-[(furan-2-ylmethyl)-amino]-piperidine-1-carbonyl}-2,2-dimethyl-propyl)-propionamide]
pIC50 [1]: 6.93
pIC50 [2]: 7.38
pIC50 [3]: 7.20

COc1coc(CNC2CCN(C(=O)[C@@H](NC(=O)[C@H](CC3CCCC3)CN(O)C=O)C(C)(C)C)CC2)cc1=O [Example 29, (R)-2-Cyclopentylmethyl-3-(formyl-hydroxy-amino)-N-((S)-1-{4-[(5-methoxy-4-oxo-4H-pyran-2-ylmethyl)-amino]-piperidine-1-carbonyl}-2,2-dimethyl-propyl)-propionamide]
pIC50 [1]: 6.81
pIC50 [2]: 7.37
pIC50 [3]: 7.27

CC(C)(C)[C@H](NC(=O)[C@H](CC1CCCC1)CN(O)C=O)C(=O)N1CCC(NCc2cc(=O)c(O)co2)CC1 [Example 30, (R)-2-Cyclopentylmethyl-3-(formyl-hydroxy-amino)-N-((S)-1-{4-[(5-hydroxy-4-oxo-4H-pyran-2-ylmethyl)-amino]-piperidin-1-carbonyl}-2,2-dimethyl-propyl)-propionamide]
pIC50 [1]: 6.80
pIC50 [2]: 7.30
pIC50 [3]: 7.21
